The structures appear in SMILES notation. ≈ marks a conversion by molar mass, not a printed value. Structures can show the parent of a compound that is named as a salt.

One data set is described as follows: solubility in water. It is filed as physicochemical.
The nature of data set [1]: precipitation of DMSO solution diluted 1:10 in phosphate buffered saline or water. The class given is physicochemical. As to the method: The compounds of the present invention may be produced using piperlongumine as a starting material yet offer numerous advantages over piperlongumine. […] The compounds of the instant invention are highly soluble in water at concentration of at least 25 mg/mL facilitating pharmaceutical preparation and delivery. Many chemotherapeutic agents transiently increase ROS levels in both cancer cells and normal cells.

Regarding `COc1cc(/C=C/C(=O)N2CCC=CC2=O)cc(OC)c1OC` [piperlongumine, Piperlongumine], the solubility in water in “solubility in water” came to 0.1 mg/mL (≈ 315 µM). The “concentration in DMSO that precipitated out when diluted 1:10” value in data set [1] is “more than 0.25 mg/ml”. As to `COc1cc(/C=C/C(=O)N2CCC=CC2=O)cc(OC)c1OCCN1CCOCC1` [tartrate salt of compound one], the solubility in “solubility in water” worked out at 100 mg/mL.

As usually defined, the solubility is the concentration that dissolves in the medium under given conditions. A higher solubility goes with much dissolved substance.

(Values after US8318737B2, “Compounds and compositions for treating cancer” (Canthera Therapeutics Inc., priority 2009, dated 2012).)
